Target: T1, hTERT (catalytic subunit of human telomerase) (Homo sapiens, UniProt O14746)
T1 construct: gene TERT; with telomerase ribonucleoprotein (TERC RNA and accessory proteins)
Experiment: test-tube TRAP assay
Assay type: biochemical

T1 sequence (O14746 whole entry): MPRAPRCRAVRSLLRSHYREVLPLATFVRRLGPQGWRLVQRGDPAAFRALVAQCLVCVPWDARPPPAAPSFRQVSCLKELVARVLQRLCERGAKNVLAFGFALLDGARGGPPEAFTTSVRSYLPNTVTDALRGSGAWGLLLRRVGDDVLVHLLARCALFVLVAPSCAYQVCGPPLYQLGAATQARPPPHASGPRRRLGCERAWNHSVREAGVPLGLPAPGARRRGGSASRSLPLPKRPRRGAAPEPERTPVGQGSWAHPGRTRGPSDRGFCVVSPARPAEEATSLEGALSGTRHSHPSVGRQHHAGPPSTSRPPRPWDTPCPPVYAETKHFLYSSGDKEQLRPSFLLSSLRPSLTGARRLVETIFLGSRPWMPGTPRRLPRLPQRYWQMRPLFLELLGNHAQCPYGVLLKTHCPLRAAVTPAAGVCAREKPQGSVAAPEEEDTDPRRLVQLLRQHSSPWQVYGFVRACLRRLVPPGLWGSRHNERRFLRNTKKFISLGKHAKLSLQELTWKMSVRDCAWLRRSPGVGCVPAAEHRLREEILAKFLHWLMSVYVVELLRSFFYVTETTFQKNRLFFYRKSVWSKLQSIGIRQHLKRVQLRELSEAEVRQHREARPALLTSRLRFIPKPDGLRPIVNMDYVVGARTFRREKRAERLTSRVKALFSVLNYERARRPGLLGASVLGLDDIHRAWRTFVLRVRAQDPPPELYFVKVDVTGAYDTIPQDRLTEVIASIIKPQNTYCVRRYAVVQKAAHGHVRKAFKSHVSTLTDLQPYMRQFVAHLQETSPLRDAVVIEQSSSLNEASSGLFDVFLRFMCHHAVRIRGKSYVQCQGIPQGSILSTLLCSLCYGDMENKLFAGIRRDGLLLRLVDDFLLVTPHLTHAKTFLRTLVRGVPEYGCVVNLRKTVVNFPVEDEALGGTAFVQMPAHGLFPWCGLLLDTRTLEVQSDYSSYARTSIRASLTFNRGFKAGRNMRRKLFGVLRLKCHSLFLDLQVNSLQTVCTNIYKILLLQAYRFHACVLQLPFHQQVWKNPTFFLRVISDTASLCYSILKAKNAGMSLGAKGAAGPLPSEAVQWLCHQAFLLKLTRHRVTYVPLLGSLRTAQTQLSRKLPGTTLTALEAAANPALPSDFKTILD

IC50: 64.1 ± 2.53 µM
SMILES: C/C(=C\C(=O)Nc1ccccc1C(=O)O)c1ccc2ccccc2c1 [BIBR1532]

Reference: publication PMC9701690, “Teloxantron inhibits the processivity of telomerase with preferential DNA damage on telomeres” (Cell Death & Disease, 2022)
